Measurements: PMC10175918 (Communications Biology, 2023)
Read-outs that look alike come from different tables or passages of the source.

Assays:
Experiment in all cases: TGFα-shedding assay-based GPCR screening with chimeric Gα subunit proteins
Assay type in all cases: cell-based
348 GPCRs [1] = biological target: T1, 348 GPCRs (Homo sapiens, UniProt P04000); details: 10µM, Favipiravir 100μM
T1 construct: expressed in transfected cells; host or cells: HEK293A
T1 sequence (P04000 1-364): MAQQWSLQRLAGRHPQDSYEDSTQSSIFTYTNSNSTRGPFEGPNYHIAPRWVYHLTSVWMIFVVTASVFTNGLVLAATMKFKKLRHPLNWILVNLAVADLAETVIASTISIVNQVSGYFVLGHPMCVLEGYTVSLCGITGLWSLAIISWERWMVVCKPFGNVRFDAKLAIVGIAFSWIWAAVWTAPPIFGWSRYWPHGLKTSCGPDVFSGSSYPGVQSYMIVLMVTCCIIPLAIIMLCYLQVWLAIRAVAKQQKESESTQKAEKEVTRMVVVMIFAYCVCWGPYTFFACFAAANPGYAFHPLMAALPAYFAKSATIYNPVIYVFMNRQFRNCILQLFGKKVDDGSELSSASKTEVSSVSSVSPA

348 GPCRs [2] = biological target: T2, 348 GPCRs (Homo sapiens, UniProt P21452); details: 10µM, Favipiravir 100μM
T2 construct: expressed in transfected cells; host or cells: HEK293A
T2 sequence (P21452 1-398): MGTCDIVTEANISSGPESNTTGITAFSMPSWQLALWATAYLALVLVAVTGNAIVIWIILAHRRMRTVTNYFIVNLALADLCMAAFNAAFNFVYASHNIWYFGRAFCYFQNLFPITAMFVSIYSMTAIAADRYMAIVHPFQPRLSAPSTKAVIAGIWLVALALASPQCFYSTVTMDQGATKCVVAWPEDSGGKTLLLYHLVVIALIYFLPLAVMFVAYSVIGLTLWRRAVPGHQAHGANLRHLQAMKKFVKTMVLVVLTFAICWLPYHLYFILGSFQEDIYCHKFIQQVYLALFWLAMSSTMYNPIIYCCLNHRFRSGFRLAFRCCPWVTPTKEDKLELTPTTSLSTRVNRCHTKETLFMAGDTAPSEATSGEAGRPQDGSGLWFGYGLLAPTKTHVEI

348 GPCRs [3] = biological target: 348 GPCRs (Homo sapiens, UniProt P25103); details: 10µM, Favipiravir 100μM
Chain of 348 GPCRs (Homo sapiens, UniProt P25103) (P25103 whole entry): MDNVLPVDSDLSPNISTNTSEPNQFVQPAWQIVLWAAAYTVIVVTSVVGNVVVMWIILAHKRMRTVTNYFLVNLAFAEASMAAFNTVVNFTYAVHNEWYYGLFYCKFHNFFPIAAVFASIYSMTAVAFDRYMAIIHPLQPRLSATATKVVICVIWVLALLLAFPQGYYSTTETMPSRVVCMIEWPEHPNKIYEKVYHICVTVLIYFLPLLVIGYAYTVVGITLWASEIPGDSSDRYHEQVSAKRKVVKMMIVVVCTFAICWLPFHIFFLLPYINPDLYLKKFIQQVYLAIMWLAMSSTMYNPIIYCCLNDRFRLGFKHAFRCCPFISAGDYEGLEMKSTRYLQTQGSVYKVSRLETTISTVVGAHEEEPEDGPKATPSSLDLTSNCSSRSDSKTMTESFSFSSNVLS

348 GPCRs [4] = biological target: T3, 348 GPCRs (Homo sapiens, UniProt P30550); details: 10µM, Favipiravir 100μM
T3 construct: expressed in transfected cells; host or cells: HEK293A
T3 sequence (P30550 whole entry): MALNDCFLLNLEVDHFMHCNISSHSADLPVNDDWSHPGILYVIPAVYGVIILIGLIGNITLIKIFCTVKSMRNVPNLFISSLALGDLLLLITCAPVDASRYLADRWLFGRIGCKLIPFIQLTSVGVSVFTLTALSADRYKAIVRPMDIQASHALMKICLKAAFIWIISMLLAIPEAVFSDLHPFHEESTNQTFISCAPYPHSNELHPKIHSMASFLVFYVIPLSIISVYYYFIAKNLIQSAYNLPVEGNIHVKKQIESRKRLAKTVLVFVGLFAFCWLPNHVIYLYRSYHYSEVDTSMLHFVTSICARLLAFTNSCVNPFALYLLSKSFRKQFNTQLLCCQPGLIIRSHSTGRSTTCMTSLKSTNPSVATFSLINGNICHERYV

348 GPCRs [5] = biological target: T4, 348 GPCRs (Homo sapiens, UniProt P32245)
T4 construct: expressed in transfected cells; host or cells: HEK293A
T4 sequence (P32245 whole entry): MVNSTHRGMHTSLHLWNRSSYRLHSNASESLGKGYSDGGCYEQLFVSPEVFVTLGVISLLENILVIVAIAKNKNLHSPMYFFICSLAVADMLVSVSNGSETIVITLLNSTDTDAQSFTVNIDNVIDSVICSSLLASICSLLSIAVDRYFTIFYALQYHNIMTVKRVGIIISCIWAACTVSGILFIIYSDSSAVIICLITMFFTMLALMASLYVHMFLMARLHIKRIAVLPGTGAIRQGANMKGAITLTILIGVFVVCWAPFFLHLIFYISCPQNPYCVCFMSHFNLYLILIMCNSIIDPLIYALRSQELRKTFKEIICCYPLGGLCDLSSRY

348 GPCRs [6] = biological target: 348 GPCRs (Homo sapiens, UniProt P41146); details: 10µM, Favipiravir 100μM
Chain of 348 GPCRs (Homo sapiens, UniProt P41146) (P41146 whole entry): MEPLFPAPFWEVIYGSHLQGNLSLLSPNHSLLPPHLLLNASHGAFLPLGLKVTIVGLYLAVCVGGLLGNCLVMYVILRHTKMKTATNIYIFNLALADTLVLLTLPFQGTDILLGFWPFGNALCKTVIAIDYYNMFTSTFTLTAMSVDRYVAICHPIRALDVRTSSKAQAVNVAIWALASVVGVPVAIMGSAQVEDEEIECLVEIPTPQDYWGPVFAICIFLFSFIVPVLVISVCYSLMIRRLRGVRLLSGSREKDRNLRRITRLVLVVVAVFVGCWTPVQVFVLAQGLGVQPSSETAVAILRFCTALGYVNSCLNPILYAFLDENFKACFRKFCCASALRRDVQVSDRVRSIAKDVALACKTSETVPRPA

348 GPCRs [7] = biological target: T5, 348 GPCRs (Homo sapiens, UniProt P41587)
T5 construct: expressed in transfected cells; host or cells: HEK293A
T5 sequence (P41587 24-438): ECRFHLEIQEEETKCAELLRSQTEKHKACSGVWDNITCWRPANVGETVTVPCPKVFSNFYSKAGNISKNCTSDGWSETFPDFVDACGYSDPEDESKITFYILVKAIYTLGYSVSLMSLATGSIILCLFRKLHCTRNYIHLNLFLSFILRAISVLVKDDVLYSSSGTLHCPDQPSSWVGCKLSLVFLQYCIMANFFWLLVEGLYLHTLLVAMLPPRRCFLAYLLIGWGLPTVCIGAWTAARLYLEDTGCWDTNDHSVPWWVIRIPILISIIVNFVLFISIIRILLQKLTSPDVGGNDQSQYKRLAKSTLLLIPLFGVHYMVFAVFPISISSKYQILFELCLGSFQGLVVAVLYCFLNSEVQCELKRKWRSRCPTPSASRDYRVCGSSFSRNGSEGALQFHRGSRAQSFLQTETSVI

348 GPCRs [8] = biological target: T6, 348 GPCRs (Homo sapiens, UniProt Q969F8); details: 10µM, Favipiravir 100μM
T6 construct: expressed in transfected cells; host or cells: HEK293A
T6 sequence (Q969F8 whole entry): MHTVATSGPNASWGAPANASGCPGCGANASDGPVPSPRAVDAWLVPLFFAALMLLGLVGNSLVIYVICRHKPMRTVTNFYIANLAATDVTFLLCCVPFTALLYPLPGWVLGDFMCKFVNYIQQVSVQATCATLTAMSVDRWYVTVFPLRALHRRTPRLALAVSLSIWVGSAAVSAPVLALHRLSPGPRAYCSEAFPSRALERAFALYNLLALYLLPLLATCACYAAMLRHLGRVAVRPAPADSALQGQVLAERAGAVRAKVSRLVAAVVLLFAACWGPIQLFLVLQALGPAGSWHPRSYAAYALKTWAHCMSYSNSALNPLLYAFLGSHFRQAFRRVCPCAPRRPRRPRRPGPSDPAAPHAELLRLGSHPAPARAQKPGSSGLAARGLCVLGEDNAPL

348 GPCRs [9] = biological target: 348 GPCRs (Homo sapiens, UniProt Q96LA9); details: 10µM, Favipiravir 100μM
Chain of 348 GPCRs (Homo sapiens, UniProt Q96LA9) (Q96LA9 whole entry): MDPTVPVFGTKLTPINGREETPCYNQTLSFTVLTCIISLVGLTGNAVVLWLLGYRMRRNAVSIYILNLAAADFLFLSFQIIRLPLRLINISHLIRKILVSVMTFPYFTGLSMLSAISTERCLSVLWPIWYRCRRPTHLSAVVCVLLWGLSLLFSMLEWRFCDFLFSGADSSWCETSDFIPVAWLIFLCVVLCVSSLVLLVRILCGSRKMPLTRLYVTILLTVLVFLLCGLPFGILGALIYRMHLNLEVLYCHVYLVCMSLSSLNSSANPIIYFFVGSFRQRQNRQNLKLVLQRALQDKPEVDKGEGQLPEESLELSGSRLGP

348 GPCRs [10] = biological target: T7, 348 GPCRs (Homo sapiens, UniProt Q9H1C0); details: 10µM, Favipiravir 100μM
T7 construct: expressed in transfected cells; host or cells: HEK293A
T7 sequence (Q9H1C0 whole entry): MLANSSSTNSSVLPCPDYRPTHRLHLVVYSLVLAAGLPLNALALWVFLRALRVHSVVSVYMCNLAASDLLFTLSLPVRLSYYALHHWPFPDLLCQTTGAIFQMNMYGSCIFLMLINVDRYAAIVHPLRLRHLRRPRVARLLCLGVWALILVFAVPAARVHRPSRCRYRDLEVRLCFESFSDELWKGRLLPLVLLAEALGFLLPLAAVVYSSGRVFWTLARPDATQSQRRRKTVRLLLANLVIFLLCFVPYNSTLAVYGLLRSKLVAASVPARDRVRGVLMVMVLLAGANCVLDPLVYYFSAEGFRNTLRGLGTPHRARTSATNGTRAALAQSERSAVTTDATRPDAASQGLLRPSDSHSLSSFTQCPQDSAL

348 GPCRs [11] = biological target: T8, 348 GPCRs (Homo sapiens, UniProt Q9H255); details: 10µM, Favipiravir 100μM
T8 construct: expressed in transfected cells; host or cells: HEK293A
T8 sequence (Q9H255 1-320): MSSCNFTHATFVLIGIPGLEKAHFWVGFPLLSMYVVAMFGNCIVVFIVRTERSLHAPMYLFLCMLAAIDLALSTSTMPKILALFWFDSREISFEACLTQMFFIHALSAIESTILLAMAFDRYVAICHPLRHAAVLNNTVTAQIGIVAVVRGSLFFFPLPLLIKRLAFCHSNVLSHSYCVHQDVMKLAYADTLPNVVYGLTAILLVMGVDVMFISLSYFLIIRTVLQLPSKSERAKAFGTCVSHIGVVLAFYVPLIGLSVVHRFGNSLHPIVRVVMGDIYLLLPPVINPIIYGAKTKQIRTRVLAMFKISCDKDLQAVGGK

348 GPCRs [12] = biological target: T9, 348 GPCRs (Homo sapiens, UniProt Q9Y2T6)
T9 construct: expressed in transfected cells; host or cells: HEK293A
T9 sequence (Q9Y2T6 whole entry): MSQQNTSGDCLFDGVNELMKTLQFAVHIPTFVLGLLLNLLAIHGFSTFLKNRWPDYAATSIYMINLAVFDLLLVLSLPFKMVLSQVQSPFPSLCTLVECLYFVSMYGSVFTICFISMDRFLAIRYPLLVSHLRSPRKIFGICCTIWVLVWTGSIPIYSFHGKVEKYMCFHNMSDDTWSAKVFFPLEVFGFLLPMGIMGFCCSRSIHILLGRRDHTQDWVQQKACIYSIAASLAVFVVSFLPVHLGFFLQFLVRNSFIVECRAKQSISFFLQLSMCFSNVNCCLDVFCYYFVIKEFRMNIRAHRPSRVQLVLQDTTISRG

[13] = read-out: % GPCR activation compared to TPA, OPN1LW (opsin 1 (cone pigments), long-wave-sensitive)
[14] = read-out: % GPCR activation compared to TPA, NK2 (tachykinin receptor 2)
[15] = read-out: % GPCR activation compared to TPA, NK1 (tachykinin receptor 1)
[16] = read-out: % GPCR activation compared to TPA, GRPR (gastrin-releasing peptide receptor)
[17] = read-out: % GPCR activation compared to TPA, GPCR MC4R (melanocortin 4 receptor)
[18] = read-out: % GPCR activation compared to TPA, OPRL1 (opioid Related Nociceptin Receptor 1)
[19] = read-out: % GPCR activation compared to TPA, GPCR VIPR2 (vasoactive intestinal peptide receptor 2)
[20] = read-out: % GPCR activation compared to TPA, KISSPEPTIN-R (KISS1 Receptor)
[21] = read-out: % GPCR activation compared to TPA, MRGPRX4 (MAS-related GPR, member X4)
[22] = read-out: % GPCR activation compared to TPA, MRGX4 (MAS-related GPR, member X4)
[23] = read-out: % GPCR activation compared to TPA, LPAR5 (lysophosphatidic acid receptor 5)
[24] = read-out: % GPCR activation compared to TPA, OR51E2 (olfactory receptor, family 51, subfamily E, member 2)
[25] = read-out: % GPCR activation compared to TPA, GPCR GPR55 (G Protein-Coupled Receptor 55)
[26] = OPN1LW (opsin 1 (cone pigments), long-wave-sensitive), read-out: % GPCR activation compared to TPA
[27] = NK2 (tachykinin receptor 2), read-out: % GPCR activation compared to TPA
[28] = NK1 (tachykinin receptor 1), read-out: % GPCR activation compared to TPA
[29] = GRPR (gastrin-releasing peptide receptor), read-out: % GPCR activation compared to TPA
[30] = GPCR MC4R (melanocortin 4 receptor), read-out: % GPCR activation compared to TPA
[31] = OPRL1 (opioid Related Nociceptin Receptor 1), read-out: % GPCR activation compared to TPA
[32] = GPCR VIPR2 (vasoactive intestinal peptide receptor 2), read-out: % GPCR activation compared to TPA
[33] = KISSPEPTIN-R (KISS1 Receptor), read-out: % GPCR activation compared to TPA
[34] = MRGPRX4 (MAS-related GPR, member X4), read-out: % GPCR activation compared to TPA
[35] = MRGX4 (MAS-related GPR, member X4), read-out: % GPCR activation compared to TPA
[36] = LPAR5 (lysophosphatidic acid receptor 5), read-out: % GPCR activation compared to TPA
[37] = OR51E2 (olfactory receptor, family 51, subfamily E, member 2), read-out: % GPCR activation compared to TPA
[38] = GPCR GPR55 (G Protein-Coupled Receptor 55), read-out: % GPCR activation compared to TPA

## CC(C)OC(=O)[C@H](C)N[P@](=O)(OC[C@H]1O[C@@H](n2ccc(=O)[nH]c2=O)[C@](C)(F)[C@@H]1O)Oc1ccccc1 [sofosbuvir]
348 GPCRs [1]; [13]
  activation at 100 µM: -0.65%
348 GPCRs [2]; [14]
  activation at 10 µM: -3.34%
348 GPCRs [3]; [15]
  activation at 10 µM: -1.29%
348 GPCRs [4]; [16]
  activation at 10 µM: -1.24%
348 GPCRs [5]; [17]
  activation at 10 µM: -2.6%
348 GPCRs [6]; [18]
  activation at 10 µM: 0.297%
348 GPCRs [7]; [19]
  activation at 10 µM: 1.3%
348 GPCRs [8]; [20]
  activation at 100 µM: -1.38%
348 GPCRs [9]; [21]
  activation at 100 µM: -0.776%
348 GPCRs [9]; [22]
  activation at 100 µM: -14.4%
348 GPCRs [10]; [23]
  activation at 10 µM: 1.1%
348 GPCRs [11]; [24]
  activation at 10 µM: -1.75%
348 GPCRs [12]; [25]
  activation at 10 µM: -0.223%

## CC(C)C(=O)OC[C@H]1O[C@@H](n2ccc(NO)nc2=O)[C@H](O)[C@@H]1O [molnupiravir]
348 GPCRs [1]; [26]
  activation at 100 µM: 0.884%
348 GPCRs [2]; [27]
  activation at 10 µM: -2.23%
348 GPCRs [3]; [28]
  activation at 10 µM: 1.66%
348 GPCRs [4]; [29]
  activation at 10 µM: -3.58%
348 GPCRs [5]; [30]
  activation at 10 µM: -1.93%
348 GPCRs [6]; [31]
  activation at 10 µM: -2.5%
348 GPCRs [7]; [32]
  activation at 10 µM: -0.156%
348 GPCRs [8]; [33]
  activation at 100 µM: -4.04%
348 GPCRs [9]; [34]
  activation at 100 µM: -2.9%
348 GPCRs [9]; [35]
  activation at 100 µM: -28.1%
348 GPCRs [10]; [36]
  activation at 10 µM: -2.73%
348 GPCRs [11]; [37]
  activation at 10 µM: -0.989%
348 GPCRs [12]; [38]
  activation at 10 µM: 0.0448%

## NC(=O)c1nc(F)cnc1O [favipiravir, 6-fluoro-3-hydroxy-2-pyrazinecarboxamide]
348 GPCRs [1]; [26]
  activation at 100 µM: 0.263%
348 GPCRs [2]; [27]
  activation at 10 µM: 1.15%
348 GPCRs [3]; [28]
  activation at 10 µM: -3.44%
348 GPCRs [4]; [29]
  activation at 10 µM: -1.14%
348 GPCRs [5]; GPCR MC4R (melanocortin 4 receptor), 100μM, read-out: % GPCR activation compared to TPA
  activation at 100 µM: 2.24%
348 GPCRs [6]; [31]
  activation at 10 µM: -1.44%
348 GPCRs [7]; GPCR VIPR2 (vasoactive intestinal peptide receptor 2), 100μM, read-out: % GPCR activation compared to TPA
  activation at 100 µM: -0.699%
348 GPCRs [8]; [33]
  activation at 100 µM: -3.52%
348 GPCRs [9]; [34]
  activation at 100 µM: -1.47%
348 GPCRs [9]; [35]
  activation at 100 µM: -11.1%
348 GPCRs [10]; [36]
  activation at 10 µM: -1.99%
348 GPCRs [11]; [37]
  activation at 10 µM: -0.415%
348 GPCRs [12]; GPCR GPR55 (G Protein-Coupled Receptor 55), 100μM, read-out: % GPCR activation compared to TPA
  activation at 100 µM: -0.0195%

## N#C[C@@]1(c2ccc3c(N)ncnn23)O[C@H](CO)[C@@H](O)[C@H]1O [GS441524]
348 GPCRs [1]; [26]
  activation at 100 µM: -0.985%
348 GPCRs [2]; [27]
  activation at 10 µM: 0.00909%
348 GPCRs [3]; [28]
  activation at 10 µM: -0.668%
348 GPCRs [4]; [29]
  activation at 10 µM: -1.56%
348 GPCRs [5]; [30]
  activation at 10 µM: 2.19%
348 GPCRs [6]; [31]
  activation at 10 µM: -0.87%
348 GPCRs [7]; [32]
  activation at 10 µM: -0.864%
348 GPCRs [8]; [33]
  activation at 100 µM: -2.31%
348 GPCRs [9]; [34]
  activation at 100 µM: -1.84%
348 GPCRs [9]; [35]
  activation at 100 µM: 0.701%
348 GPCRs [10]; [36]
  activation at 10 µM: 2.96%
348 GPCRs [11]; [37]
  activation at 10 µM: 0.751%
348 GPCRs [12]; [38]
  activation at 10 µM: -0.0977%

## CCC(CC)COC(=O)[C@H](C)N[P@](=O)(OC[C@H]1O[C@@](C#N)(c2ccc3c(N)ncnn23)[C@H](O)[C@@H]1O)Oc1ccccc1 [remdesivir]
348 GPCRs [1]; [13]
  activation at 100 µM: 0.199%
348 GPCRs [2]; [14]
  activation at 10 µM: 1.32%
348 GPCRs [3]; [15]
  activation at 10 µM: -0.867%
348 GPCRs [4]; [16]
  activation at 10 µM: -2.02%
348 GPCRs [5]; [17]
  activation at 10 µM: 3.44%
348 GPCRs [6]; [18]
  activation at 10 µM: -1.46%
348 GPCRs [7]; [19]
  activation at 10 µM: 0.502%
348 GPCRs [8]; [20]
  activation at 100 µM: -1.75%
348 GPCRs [9]; [21]
  activation at 100 µM: -0.071%
348 GPCRs [9]; [22]
  activation at 100 µM: -1.24%
348 GPCRs [10]; [23]
  activation at 10 µM: 2.15%
348 GPCRs [11]; [24]
  activation at 10 µM: 0.358%
348 GPCRs [12]; [25]
  activation at 10 µM: -2.75%
